Results: ChEMBL document CHEMBL5375981, “Enhanced Tumor Targeting and Penetration of Proteolysis-Targeting Chimeras through iRGD Peptide Conjugation: A Strategy for Precise Protein Degradation in Breast Cancer” (J Med Chem, 2023)
Values after ≈ are worked out from the molar mass of the structure shown. Values belong to the compound of their own block, whether it stands above or below them. Active and inactive are the calls of the source. The rule behind the calls is not given here.

Key:
[1] = molecular target: Bromodomain-containing protein 4 (Homo sapiens) (UniProt O60885); assay: Induction of BRD4 degradation in human MDA-MB-231 cells harboring high integrin alphaVbeta3 expression at 1 uM incubated for 12 hrs by immunofluorescence staining based confocal microscopic analysis; type: cell-based
[2] = molecular target: Bromodomain-containing protein 4 (Homo sapiens) (UniProt O60885); assay: Induction of BRD4 degradation in human L02 cells lacking integrin alphaVbeta3 expression at 0.01 to 1 uM incubated for 24 hrs by Western blot analysis; type: cell-based; conditions: dose 0.01-1 µM
[3] = molecular target: Bromodomain-containing protein 4 (Homo sapiens) (UniProt O60885); assay: Induction of BRD4 degradation in human MCF7 cells harboring low integrin alphaVbeta3 expression at 0.01 to 1 uM incubated for 24 hrs by Western blot analysis; type: cell-based; conditions: dose 0.01-1 µM
[4] = molecular target: Bromodomain-containing protein 4 (Homo sapiens) (UniProt O60885); assay: Induction of BRD4 degradation in human L02 cells lacking integrin alphaVbeta3 expression at 300 nM incubated for 12 hrs by immunofluorescence staining based confocal microscopic analysis; type: cell-based
[5] = Solubility in distilled water measured for 30 mins by ultraviolet spectrophotometry analysis; type: physicochemical
L02 [6] = assay: Antiproliferative activity against human L02 cells harboring minimal integrin alphaVbeta3 expression assessed as inhibition of cell growth incubated for 72 hrs by CCK-8 assay; type: functional, cell-based; conditions: L02, 72 h
[7] = molecular target: Bromodomain-containing protein 4 (Homo sapiens) (UniProt O60885); assay: Induction of BRD4 degradation in human MDA-MB-231 cells harboring high integrin alphaVbeta3 expression at 0.11 uM incubated for 24 hrs by Western blot analysis; type: cell-based
MDA-MB-231 [8] = assay: Antiproliferative activity against human MDA-MB-231 cells harboring high integrin alphaVbeta3 expression assessed as inhibition of cell growth incubated for 72 hrs by CCK-8 assay; type: functional, cell-based; conditions: MDA-MB-231, 72 h
[9] = molecular target: Bromodomain-containing protein 4 (Homo sapiens) (UniProt O60885); assay: Induction of BRD4 degradation in human MCF7 cells harboring low integrin alphaVbeta3 expression at 300 nM incubated for 12 hrs by immunofluorescence staining based confocal microscopic analysis; type: cell-based
[10] = Drug release in PBS assessed as increase in (2S)-1-((R)-2-(tert-butyl)-17-((S)-4-(4-chlorophenyl)-2,3,9-trimethyl-6H-thieno[3,2-f][1,2,4]triazolo[4,3-a][1,4]diazepin-6-yl)-4,16-dioxo-6,9,12-trioxa-3,15-diazaheptadecanoyl)-4-hydroxy-N-((S)-1-(4-(4-methylthiazol-5-yl)phenyl)ethyl)pyrrolidine-2-carboxamide concentration at 50 uM in presence of GSH by LC-MS analysis; type: ADME; conditions: buffer, TDE = time-dependent effect
[11] = molecular target: Bromodomain-containing protein 4 (Homo sapiens) (UniProt O60885); assay: Induction of BRD4 degradation in human MDA-MB-231 cells harboring high integrin alphaVbeta3 expression at 300 nM incubated for 16 to 20 hrs by Western blot analysis; type: cell-based; conditions: time 16-20 hrs
MCF7 [12] = assay: Antiproliferative activity against human MCF7 cells harboring low integrin alphaVbeta3 expression assessed as inhibition of cell growth incubated for 72 hrs by CCK-8 assay; type: functional, cell-based; conditions: MCF7, 72 h
[13] = Stability of compound in PBS containing 5% serum at 50 uM measured after 72 hrs by LC-MS analysis; type: physicochemical, cell-free; conditions: read-out: Stability
[14] = Toxicity in BALB/C mouse xenografted with human MDA-MB-231 cells assessed as effect on heart weight at 5 uM, iv administered every other day for 21 days; type: organism-based; conditions: in vivo, 504 h, time 21 day
[15] = molecular target: Bromodomain-containing protein 4 (Homo sapiens) (UniProt O60885); assay: Induction of BRD4 degradation in human MCF7 cells harboring low integrin alphaVbeta3 expression at 300 nM measured at 20 hrs by Western blot analysis relative to control; type: cell-based
[16] = molecular target: Bromodomain-containing protein 4 (Homo sapiens) (UniProt O60885); assay: Induction of BRD4 degradation in human MCF7 cells harboring low integrin alphaVbeta3 expression at 300 nM measured at 16 hrs by Western blot analysis; type: cell-based
MDA-MB-231 [17] = assay: Antitumor activity against human MDA-MB-231 cells xenografted in BALB/C nude mouse assessed as tumor growth inhibition at 5 uM, iv administered every other day and measured after 21 days by vernier caliper method relative to control; type: functional; conditions: MDA-MB-231, 504 h, time 21 day, read-out: TGI
MCF7 [18] = assay: Antimigratory activity against human MCF7 cells harboring low integrin alphaVbeta3 expression assessed as inhibition of cell migration at 200 nM incubated for 48 hrs by crystal violet staining based transwell assay; type: functional
MDA-MB-231 [19] = assay: Antitumor activity against human MDA-MB-231 cells xenografted in BALB/C nude mouse assessed as disruption of tumor blood vessel wall at 5 uM, iv administered every other day and measured after 21 days by H and E staining based assay; type: functional, organism-based; conditions: time 21.0 day
[20] = Toxicity in BALB/C mouse xenografted with human MDA-MB-231 cells assessed as effect on lung weight at 5 uM, iv administered every other day for 21 days; type: organism-based; conditions: in vivo, 504 h, time 21 day
[21] = molecular target: Bromodomain-containing protein 4 (Homo sapiens) (UniProt O60885); assay: Induction of BRD4 degradation in human MCF7 cells harboring low integrin alphaVbeta3 expression at 0.11 uM incubated for 24 hrs by Western blot analysis relative to control; type: cell-based
L02 [22] = assay: Antimigratory activity against human L02 cells lacking integrin alphaVbeta3 expression assessed as inhibition of cell migration at 200 nM incubated for 48 hrs by crystal violet staining based transwell assay; type: functional
[23] = Toxicity in BALB/C mouse xenografted with human MDA-MB-231 cells assessed as effect on spleen weight at 5 uM, iv administered every other day for 21 days; type: organism-based; conditions: in vivo, 504 h, time 21 day
[24] = molecular target: Bromodomain-containing protein 4 (Homo sapiens) (UniProt O60885); assay: Induction of BRD4 degradation in human MCF7 cells harboring low integrin alphaVbeta3 expression at 0.04 uM incubated for 24 hrs by Western blot analysis; type: cell-based
[25] = Toxicity in BALB/C mouse xenografted with human MDA-MB-231 cells assessed as adverse reactions at 5 uM, iv administered for 21 days and measured every 3 days; type: organism-based; conditions: in vivo, 504 h, time 21 day
[26] = molecular target: Bromodomain-containing protein 4 (Homo sapiens) (UniProt O60885); assay: Induction of BRD4 degradation in human MDA-MB-231 cells harboring high integrin alphaVbeta3 expression at 300 nM measured at 24 hrs by Western blot analysis; type: cell-based
[27] = Toxicity in BALB/C mouse xenografted with human MDA-MB-231 cells assessed as lung damage at 5 uM, iv administered every other day for 21 days and measured 37 days post treatment by H and E staining based assay; type: organism-based; conditions: in vivo, 1392 h, time 58 day
[28] = Toxicity in BALB/C mouse xenografted with human MDA-MB-231 cells assessed as weight loss at 5 uM, iv administered for 21 days and measured every 3 days; type: organism-based; conditions: in vivo, 504 h, time 21 day
[29] = Antitumor activity against patient-derived Breast cancer organoid assessed as inhibition of cell growth incubated for approximately 3 to 5 days by CCK-8 assay; type: functional, tissue-based; conditions: Homo sapiens
[30] = Toxicity in BALB/C mouse xenografted with human MDA-MB-231 cells assessed as effect on liver weight at 5 uM, iv administered every other day for 21 days; type: organism-based; conditions: in vivo, 504 h, time 21 day
[31] = molecular target: Bromodomain-containing protein 4 (Homo sapiens) (UniProt O60885); assay: Induction of BRD4 degradation in human L02 cells lacking integrin alphaVbeta3 expression at 300 nM measured at 24 hrs by Western blot analysis relative to control; type: cell-based
[32] = Toxicity in BALB/C mouse xenografted with human MDA-MB-231 cells assessed as effect on kidney weight at 5 uM, iv administered every other day for 21 days; type: organism-based; conditions: in vivo, 504 h, time 21 day
[33] = molecular target: Bromodomain-containing protein 4 (Homo sapiens) (UniProt O60885); assay: Induction of BRD4 degradation in human L02 cells lacking integrin alphaVbeta3 expression at 0.33 uM incubated for 24 hrs by Western blot analysis relative to control; type: cell-based

SMILES: Cc1ncsc1-c1ccc([C@H](C)NC(=O)[C@@H]2C[C@@H](OC(=O)OCCSSCCOC(=O)CCC(=O)N[C@@H](CCCNC(=N)N)C(=O)NCC(=O)N[C@@H](CC(=O)O)C(=O)O)CN2C(=O)[C@@H](NC(=O)COCCOCCOCCNC(=O)C[C@@H]2N=C(c3ccc(Cl)cc3)c3c(sc(C)c3C)-n3c(C)nnc32)C(C)(C)C)cc1
Activity [1]: Active
Activity [2]: inactive
Activity [3]: inactive
Activity [4]: inactive
solubility at 0.5 h [5]: > 10 mM
IC50 (L02 [6]): 980 nM
Activity [7]: Active
IC50 (MDA-MB-231 [8]): 190 nM
Activity [9]: inactive
Drug metabolism [10]: Tde
Activity [11]: Active
IC50 (MCF7 [12]): 190 nM
remaining at 72 h, 50 µM [13]: 94.6%

Activity [1]: Active
Activity [4]: Active
solubility at 0.5 h [5]: 29.5 mM (≈ 30 mg/mL)
Activity [7]: Active
Activity [15]: 100%
IC50 (MDA-MB-231 [8]): 90 nM
Activity [9]: Active
Activity [16]: Active
Activity [21]: 100%
Activity [24]: Active
Activity [26]: Active
IC50 (MCF7 [12]): 30 nM
Activity [31]: 100%
Activity [33]: 100%
SMILES: Cc1ncsc1-c1ccc([C@H](C)NC(=O)[C@@H]2C[C@@H](O)CN2C(=O)[C@@H](NC(=O)COCCOCCOCCNC(=O)C[C@@H]2N=C(c3ccc(Cl)cc3)c3c(sc(C)c3C)-n3c(C)nnc32)C(C)(C)C)cc1
Activity [14]: Non-Toxic
IC50 (L02 [6]): 400 nM
inhibition in vivo at 5 µM (MDA-MB-231 [17]): 36.3%
Activity (MCF7 [18]): Active
Activity (MDA-MB-231 [19]): inactive
Activity [20]: Non-Toxic
Activity (L02 [22]): Active
Activity [23]: Non-Toxic
Activity [25]: Non-Toxic
Activity [27]: Toxic
Activity [28]: Non-Toxic
IC50 [29]: 2100 nM
Activity [30]: Non-Toxic
Activity [32]: Non-Toxic

solubility at 0.5 h [5]: > 10 mM
remaining at 72 h, 50 µM [13]: 10.2%
SMILES: Cc1ncsc1-c1ccc([C@H](C)NC(=O)[C@@H]2C[C@@H](OC(=O)CCC(=O)N[C@@H](Cc3c[nH]cn3)C(=O)N[C@@H](Cc3c[nH]cn3)C(=O)NCC(=O)N[C@@H](CCCNC(=N)N)C(=O)NCC(=O)N[C@@H](CC(=O)O)C(=O)O)CN2C(=O)[C@@H](NC(=O)COCCOCCOCCNC(=O)C[C@@H]2N=C(c3ccc(Cl)cc3)c3c(sc(C)c3C)-n3c(C)nnc32)C(C)(C)C)cc1
